Legend:
Plasmodium falciparum [1] = test: NOVARTIS: Inhibition of Plasmodium falciparum 3D7 (drug-susceptible) proliferation in erythrocyte-based infection assay; format: functional, organism-based; details: Plasmodium falciparum, 3D7
[2] = NOVARTIS: Cytotoxicity against human hepatocellular carcinoma cell line (Huh7); format: toxicity, cell-based, Huh-7; details: Huh7 cells (hepatocellular carcinoma cell line)
Plasmodium falciparum [3] = test: NOVARTIS: Inhibition of Plasmodium falciparum W2 (drug-resistant) proliferation in erythrocyte-based infection assay; format: functional, organism-based; details: Plasmodium falciparum, W2; read-out: EC50

SMILES | EC50 (Plasmodium falciparum [1]) [nM] | CC50 [2] [nM] | EC50 (Plasmodium falciparum [3]) [nM]
CN(C)CC(C)(C)CNCc1cc(-c2ccnc3cc(Cl)ccc23)ccc1O | 880 | > 10000 | 660
Cc1ccccc1C(=O)N1CCC(n2nccc2NC(=O)CCOc2ccccc2)CC1 | > 12500 | > 100000 | 4450
CC1=C(C(=O)OC2CCCC2)C(c2ccccc2F)C2=C(CC(c3ccccc3)CC2=O)N1 (centres undefined) | 541 | > 100000 | 259
O=C1CSc2ccccc2N1 | > 10600 | > 100000 | 1080
CCCC(=O)NC(C(=O)N1CCN(C(c2ccccc2)c2ccccc2)CC1)C(C)C (centres undefined) | 387 | > 10000 | 10.9
Cn1c(=O)c2c(ncn2CC(O)CN=C2CCCCN2)n(C)c1=O (centres undefined) | > 1250 | > 10000 | > 933
COc1ccc(C2CC(=O)C3=C(C2)NC(C)=C(C(=O)OC(C)C)C3c2cccc(Br)c2)cc1OC (centres undefined) | 234 | 14700 | 41.6
CC(=O)N(C1=C(N2CCOCC2)C(=O)c2ccccc2C1=O)c1ccc(F)c(F)c1 | 74.3 | 3480 | 57.5
CCN1CCCC1CNc1ncnc2c1[nH]c1ccc(C)cc12 (centres undefined) | 269 | 21000 | 138
COc1ccc(N2C(=O)[C@@H]3C[C@H]2CN3C(=O)c2cccc(Cn3nc(C)cc3C)c2)cc1Cl | > 1250 | > 3800 | 26.7
O=C(Nc1ccc2nc3n(c(=O)c2c1)CCCCC3)C(=O)N1CCN(c2cccc(Cl)c2)CC1 | 1810 | > 100000 | 250
COc1ccc(C2CC(=O)C3=C(C2)NC(=O)CC3c2ccc([N+](=O)[O-])cc2)cc1OC (centres undefined) | 346 | > 100000 | 64.9
CN(CCCNc1ccnc2cc(Cl)ccc12)C(=O)c1cccc(C(F)(F)F)c1 | 85.1 | > 2550 | 278
COc1ccc(OC)c(C2CC(=O)N3CN(Cc4ccccc4)CSC3=C2C#N)c1 (centres undefined) | 638 | > 100000 | 482
O=C(O)CSc1nc2c(ccc3nsnc32)[nH]1 | > 964 | > 10000 | > 1440
CCc1ccc2[nH]c(=O)c(CN(CCCN(CC)CC)C(=S)NCCCN(C)C)cc2c1 | 2040 | > 100000 | 664
COc1ccc(-[n+]2cc(-c3ccc(Cl)cc3)n3c2SCCC3)cc1 | 673 | > 100000 | 1060
CCCCCCCCCCCC(=O)N(C)CCCNc1ccnc2cc(Cl)ccc12 | 223 | 3010 | 27.3
CCN(CC)C(CN1CCN(CC(C)C(=O)c2ccc(O)cc2)CC1)c1ccc(F)cc1 (centres undefined) | 1950 | 49000 | 4310
CCOC(=O)c1sc(Nc2c(Cl)cc(S(N)(=O)=O)cc2Cl)nc1C | > 1250 | > 10000 | 411
CC1CC(C)(C)NC(=S)N1CCC(=O)NCCc1ccccc1 (centres undefined) | 1010 | > 10000 | > 1250
COc1cc([N+](=O)[O-])ccc1NC(=O)CN1CCN(C(=O)c2ccco2)CC1 | 1600 | > 100000 | 832
CC(C)CNc1nc(NCCCN2CCCC2)ncc1C(=O)NCc1ccccc1 | 664 | > 10000 | > 1230
COc1ccc(C(=O)Nc2ccc3nsnc3c2)cc1OC | > 1250 | > 10000 | > 1250
O=C(Nc1ccc(C(c2ccccc2)(c2ccccc2)c2ccc(NC(=O)c3cccc([N+](=O)[O-])c3)cc2)cc1)c1cccc([N+](=O)[O-])c1 | > 1250 | > 10000 | 1680
CN1CCc2c(sc3c2C(=O)NC(c2ccc(O)cc2)N3)C1 (centres undefined) | 755 | 33600 | 378
CC(=O)N/C(=C\c1ccc(OC(F)F)cc1)C(=O)O | > 1170 | > 10000 | 432
COc1ccc(OC)c(-c2ccc(O)c(CNCCc3cccc(F)c3)c2)c1 | 675 | > 10000 | 106

— ChEMBL document CHEMBL1156829 (Proc Natl Acad Sci U S A, 2008)
